Assays:
HDAC6 = target: T1, HDAC6 (Homo sapiens, UniProt Q9UBN7); test: Human HDAC enzyme inhibitor Fluor-de-Lys assay, HDAC6; type: biochemical; details: HDAC6, Fluor-de-Lys assay
T1 sequence (Q9UBN7 1-1215): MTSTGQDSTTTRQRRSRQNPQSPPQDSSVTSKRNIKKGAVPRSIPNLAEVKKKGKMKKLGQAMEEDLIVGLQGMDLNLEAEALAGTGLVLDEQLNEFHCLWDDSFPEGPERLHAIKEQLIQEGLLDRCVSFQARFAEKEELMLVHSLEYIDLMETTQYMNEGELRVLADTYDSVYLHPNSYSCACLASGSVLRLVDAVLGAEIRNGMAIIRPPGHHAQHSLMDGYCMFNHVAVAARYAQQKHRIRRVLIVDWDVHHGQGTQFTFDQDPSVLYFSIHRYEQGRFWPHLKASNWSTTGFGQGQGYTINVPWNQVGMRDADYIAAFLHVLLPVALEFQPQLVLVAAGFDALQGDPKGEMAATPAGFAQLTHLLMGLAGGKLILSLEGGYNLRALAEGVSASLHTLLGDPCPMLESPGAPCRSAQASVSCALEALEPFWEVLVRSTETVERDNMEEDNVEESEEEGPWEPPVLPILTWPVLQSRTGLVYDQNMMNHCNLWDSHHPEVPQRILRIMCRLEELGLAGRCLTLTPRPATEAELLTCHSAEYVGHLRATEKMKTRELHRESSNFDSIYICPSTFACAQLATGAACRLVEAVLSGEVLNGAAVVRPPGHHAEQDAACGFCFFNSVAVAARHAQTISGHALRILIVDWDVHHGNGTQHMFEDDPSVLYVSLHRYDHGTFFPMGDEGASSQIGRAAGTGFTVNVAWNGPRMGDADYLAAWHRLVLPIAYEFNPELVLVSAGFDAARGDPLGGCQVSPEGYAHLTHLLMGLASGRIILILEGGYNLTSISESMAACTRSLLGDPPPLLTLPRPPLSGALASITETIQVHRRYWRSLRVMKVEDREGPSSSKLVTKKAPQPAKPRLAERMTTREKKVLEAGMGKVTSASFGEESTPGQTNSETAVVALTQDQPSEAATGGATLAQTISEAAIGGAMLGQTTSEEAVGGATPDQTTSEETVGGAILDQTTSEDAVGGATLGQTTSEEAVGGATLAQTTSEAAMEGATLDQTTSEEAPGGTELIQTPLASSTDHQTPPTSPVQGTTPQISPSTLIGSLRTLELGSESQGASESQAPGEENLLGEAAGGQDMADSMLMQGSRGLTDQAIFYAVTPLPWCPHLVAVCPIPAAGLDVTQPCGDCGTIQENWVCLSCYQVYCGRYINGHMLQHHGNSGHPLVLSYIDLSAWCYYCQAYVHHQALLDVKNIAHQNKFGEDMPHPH

Recombinant human HDAC8 = target: T2, Recombinant human HDAC8 (Homo sapiens, UniProt Q9BY41); test: Human HDAC enzyme inhibitor Fluor-de-Lys assay, HDAC8; type: biochemical; details: recombinant human HDAC8, Fluor-de-Lys assay
T2 construct: purchased Enzo Life Sciences BML-SE145-0100
T2 sequence (Q9BY41 1-377): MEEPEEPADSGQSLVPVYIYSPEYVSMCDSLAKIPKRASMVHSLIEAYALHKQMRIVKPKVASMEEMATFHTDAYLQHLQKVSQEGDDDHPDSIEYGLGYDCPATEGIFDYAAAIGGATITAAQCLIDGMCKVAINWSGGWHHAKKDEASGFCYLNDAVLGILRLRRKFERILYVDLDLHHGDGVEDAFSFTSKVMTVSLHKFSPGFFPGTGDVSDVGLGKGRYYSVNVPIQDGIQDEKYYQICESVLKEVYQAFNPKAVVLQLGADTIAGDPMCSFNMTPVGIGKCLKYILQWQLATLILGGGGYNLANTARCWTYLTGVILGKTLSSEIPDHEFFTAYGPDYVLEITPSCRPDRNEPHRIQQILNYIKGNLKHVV

SMILES | IC50 (HDAC6) [nM] | IC50 (Recombinant human HDAC8) [nM]
CCC(=O)CCCCC[C@H](NC(=O)[C@H]1CC12CCN(C)CC2)c1ncc(-c2ccc3ccc(C)nc3c2F)[nH]1 [Compound 354] | 354 | 798
CCC(=O)CCCCCC(NC(=O)C1CCC2(CC1)OC(=O)c1ccncc12)c1nnc(-c2cc3ccccc3nc2OC)o1 (stereo not drawn) [Compound 363] | 2040 | 25500
CCC(=O)CCCCCC(NC(=O)C1CCC2(CC1)OC(=O)c1cnccc12)c1nnc(-c2cc3ccccc3nc2OC)o1 (stereo not drawn) [Compound 364] | 1990 | 32100

Reference: patent publication US12590099B2, “Inhibitors of histone deacetylase useful for the treatment or prevention of HIV infection” (Merck Sharp & Dohme LLC, priority 2018, dated 2026)
